pIC50: −log10 of the molar value.

One assay concerns the target Antithrombin-III (Homo sapiens, UniProt P01008). The assay can be described thus: Inhibition of antithrombin-3 assessed as residual alpha-thrombin activity.
In assay [1] the target is T1, Plasminogen activator inhibitor 1 (Homo sapiens, UniProt P05121). The assay can be described thus: Inhibition of human recombinant PAI1 assessed as rate of AMC release after 30 mins.
For assay [2], the target named is T1, Plasminogen activator inhibitor 1. The assay can be described thus: Inhibition of human recombinant PAI1 assessed as rate of AMC release at 300 uM after 30 mins.

T1 sequence (P05121 whole entry): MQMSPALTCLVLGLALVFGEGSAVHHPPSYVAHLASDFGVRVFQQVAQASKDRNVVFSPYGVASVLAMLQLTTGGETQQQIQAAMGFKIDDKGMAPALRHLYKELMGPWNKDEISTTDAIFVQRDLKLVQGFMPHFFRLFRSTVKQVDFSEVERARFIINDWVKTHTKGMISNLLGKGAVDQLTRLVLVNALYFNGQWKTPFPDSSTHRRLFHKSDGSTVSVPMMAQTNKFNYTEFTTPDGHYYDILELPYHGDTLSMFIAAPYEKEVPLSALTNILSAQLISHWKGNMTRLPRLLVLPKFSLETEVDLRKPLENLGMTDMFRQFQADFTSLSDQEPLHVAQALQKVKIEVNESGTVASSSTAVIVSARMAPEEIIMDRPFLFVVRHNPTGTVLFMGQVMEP
Sequence of Antithrombin-III (P01008 whole entry): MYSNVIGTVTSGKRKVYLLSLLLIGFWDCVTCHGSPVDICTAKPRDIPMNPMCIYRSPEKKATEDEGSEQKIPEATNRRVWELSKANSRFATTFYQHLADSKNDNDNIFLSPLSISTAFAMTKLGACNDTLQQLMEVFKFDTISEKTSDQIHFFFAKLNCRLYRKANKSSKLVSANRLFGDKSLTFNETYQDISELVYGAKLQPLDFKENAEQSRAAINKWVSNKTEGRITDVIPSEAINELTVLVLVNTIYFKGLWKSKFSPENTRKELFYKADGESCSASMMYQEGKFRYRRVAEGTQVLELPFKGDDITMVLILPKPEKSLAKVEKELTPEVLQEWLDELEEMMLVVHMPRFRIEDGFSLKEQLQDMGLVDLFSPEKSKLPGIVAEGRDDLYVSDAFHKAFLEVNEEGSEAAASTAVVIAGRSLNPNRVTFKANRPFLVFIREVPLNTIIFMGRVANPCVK

For `O=S(=O)(c1ccc(O)c(O)c1)N(C1CCCCC1)S(=O)(=O)c1ccc(O)c(O)c1`, the pIC50 on Antithrombin-III was less than 3.52; in assay [1] it was 6.23.

For the compound `CCN(CCN(CC)S(=O)(=O)c1cc(O)ccc1O)S(=O)(=O)c1cc(O)ccc1O`, the pIC50 (at Antithrombin-III; in assay [1]) was less than 3.52 each time. Besides, in assay [2], the inhibition is less than 30%.

In the case of `CCN(CCN(CC)S(=O)(=O)c1ccc(OC)c(OC)c1)S(=O)(=O)c1ccc(OC)c(OC)c1`, the pIC50 (on Antithrombin-III; in assay [1]) was less than 3.52 each time.

Turning to `O=S(=O)(NCCCCCCNS(=O)(=O)c1ccc(O)c(O)c1)c1ccc(O)c(O)c1`, the negative logarithm of the IC50 (pIC50) at Antithrombin-III is less than 2.52; in assay [1] it was 2.86.

For the compound `O=S(=O)(c1ccc(O)c(O)c1)N(Cc1ccccc1)S(=O)(=O)c1ccc(O)c(O)c1`, the values for the pIC50 (on Antithrombin-III; in assay [1]) were less than 3.52 and 5.32, respectively.

For the compound `O=S(=O)(NCCNS(=O)(=O)c1ccc(O)c(O)c1)c1ccc(O)c(O)c1`, the pIC50 at Antithrombin-III was less than 2.52; in assay [1] it was 3.29.

Consider `O=S(=O)(NCCCCNS(=O)(=O)c1ccc(O)c(O)c1)c1ccc(O)c(O)c1`, for which the pIC50 (at Antithrombin-III; in assay [1]) was less than 2.52 throughout.

For `CCN(CCN(CC)S(=O)(=O)c1cccc(O)c1)S(=O)(=O)c1cccc(O)c1`, the values for the pIC50 (at Antithrombin-III; in assay [1]) were less than 3.00 and 3.46, respectively.

As for `CCN(CCN(CC)S(=O)(=O)c1ccc(O)c(O)c1)S(=O)(=O)c1ccc(O)c(O)c1`, the figures for the pIC50 (at Antithrombin-III; in assay [1]) were less than 3.00 and 5.03, respectively.

In the case of `CCN(CCN(CC)S(=O)(=O)c1cc(F)c(O)c(F)c1)S(=O)(=O)c1cc(F)c(O)c(F)c1`, the values for the pIC50 (at Antithrombin-III; in assay [1]) were less than 2.52 and 3.89, respectively.

Regarding `CCN(CCN(CC)S(=O)(=O)c1ccc(O)cc1)S(=O)(=O)c1ccc(O)cc1`, the pIC50 (at Antithrombin-III; in assay [1]) was less than 3.52 throughout.

Turning to `CCN(CCN(CC)S(=O)(=O)c1ccccc1)S(=O)(=O)c1ccccc1`, the pIC50 (at Antithrombin-III; in assay [1]) was less than 3.52 throughout.

Consider `O=S(=O)(c1ccc(O)c(O)c1)N1CCN(S(=O)(=O)c2ccc(O)c(O)c2)CC1`, for which the pIC50 (on Antithrombin-III; in assay [1]) was less than 3.52 each time. The inhibition in assay [2] is less than 30%.

For the compound `CCCCCCN(S(=O)(=O)c1ccc(O)c(O)c1)S(=O)(=O)c1ccc(O)c(O)c1`, the pIC50 is less than 3.52 on Antithrombin-III and 6.55 in assay [1].

Consider `CCCN(S(=O)(=O)c1ccc(O)c(O)c1)S(=O)(=O)c1ccc(O)c(O)c1`, for which the values for the pIC50 (on Antithrombin-III; in assay [1]) were less than 3.00 and 5.57, respectively.

Source of the values: ChEMBL document CHEMBL1159114, “Novel bis-arylsulfonamides and aryl sulfonimides as inactivators of plasminogen activator inhibitor-1 (PAI-1)” (Bioorg Med Chem Lett, 2010).
